According to PubChem BioAssay (NCI):
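These data come from cells grown in 96-well plates and exposed to compound for 48 hours at five concentrations. GI50: concentration for 50% inhibition of growth. At the TGI there is no net growth.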

How the values were obtained:
Experiment in all cases: NCI-60 cell line screen, 48 h
[1] = system: TK-10 renal
[2] = system: OVCAR-4 ovarian
[3] = system: DU-145 prostate
[4] = system: RXF 393 renal
[5] = system: HT29 colon
[6] = system: NCI-H226 lung
[7] = system: ACHN renal
[8] = system: MOLT-4 leukemia
[9] = system: LOX IMVI melanoma
[10] = system: NCI-H23 lung
[11] = system: A549 NSCLC
[12] = system: SF-295 CNS
[13] = system: M14 melanoma
[14] = system: A498 renal
[15] = system: OVCAR-8 ovarian
[16] = system: HCC-2998 colon
[17] = system: MALME-3M melanoma
[18] = system: OVCAR-5 ovarian
[19] = system: HOP-92 NSCLC
[20] = system: UO-31 renal
[21] = system: BT-549 breast
[22] = system: SNB-75 CNS
[23] = system: K-562 leukemia
[24] = system: MCF7 breast
[25] = system: RPMI-8226 leukemia
[26] = system: NCI-H522 lung
[27] = system: SR leukemia
[28] = system: HCT-15 colon
[29] = system: SK-OV-3 ovarian
[30] = system: MDA-MB-231 breast
[31] = system: OVCAR-3 ovarian
[32] = system: NCI/ADR-RES ovarian
[33] = system: CAKI-1 renal
[34] = system: HS 578T breast
[35] = system: SK-MEL-28 melanoma
[36] = system: SN12C renal
[37] = system: PC-3 prostate
[38] = system: SW-620 colon
[39] = system: SK-MEL-2 melanoma
[40] = system: HCT-116 colon
[41] = system: CCRF-CEM leukemia
[42] = system: MDA-MB-435
[43] = system: KM12 colon
[44] = system: HL-60(TB) leukemia
[45] = system: IGROV1 ovarian
[46] = system: 786-0 renal
[47] = system: HOP-62 NSCLC
[48] = system: COLO 205 colon
[49] = system: SF-268 CNS
[50] = system: SK-MEL-5 melanoma
[51] = system: NCI-H460 lung
[52] = system: UACC-257 melanoma
[53] = system: EKVX NSCLC
[54] = system: T-47D breast
[55] = system: U251 CNS
[56] = system: SF-539 CNS
[57] = system: UACC-62 melanoma
[58] = system: SNB-19 CNS

**Q.** For `C=CC(=O)N1CCCC(n2nc(-c3ccc(Oc4ccccc4)cc3)c3c(N)ncnc32)C1` (stereo unspecified), which GI50 [1] is on record?
**A.** 0.0615 µM

**Q.** And the TGI [1]?
**A.** 3.94 µM

**Q.** And the GI50 [2]?
**A.** 7.12 µM

**Q.** What about the TGI [2] of the same molecule?
**A.** 21.2 µM

**Q.** And the GI50 [3]?
**A.** 1.89 µM

**Q.** And the TGI [3]?
**A.** 17.4 µM

**Q.** And the GI50 [4]?
**A.** 2.68 µM

**Q.** And the TGI [4]?
**A.** 11.4 µM

**Q.** And the GI50 [5]?
**A.** 5.93 µM

**Q.** What about the TGI [5] of the same molecule?
**A.** 21 µM

**Q.** And the GI50 [6]?
**A.** 3.97 µM

**Q.** And the TGI [6]?
**A.** 19.3 µM

**Q.** What about the GI50 [7] of the same molecule?
**A.** 0.248 µM

**Q.** And the TGI [7]?
**A.** 15.8 µM

**Q.** What about the GI50 [8] of the same molecule?
**A.** 4.28 µM

**Q.** And the TGI [8]?
**A.** 25.8 µM

**Q.** What about the GI50 [9] of the same molecule?
**A.** 4.26 µM

**Q.** And the TGI [9]?
**A.** 19.1 µM

**Q.** What about the GI50 [10] of the same molecule?
**A.** 12.1 µM

**Q.** And the TGI [10]?
**A.** 28.7 µM

**Q.** What about the GI50 [11] of the same molecule?
**A.** 11.9 µM

**Q.** What about the TGI [11] of the same molecule?
**A.** 26 µM

**Q.** And the GI50 [12]?
**A.** 7.71 µM

**Q.** And the TGI [12]?
**A.** 23.8 µM

**Q.** What about the GI50 [13] of the same molecule?
**A.** 7.59 µM

**Q.** And the TGI [13]?
**A.** 21.4 µM

**Q.** And the GI50 [14]?
**A.** 0.124 µM

**Q.** And the TGI [14]?
**A.** 2.08 µM

**Q.** What about the GI50 [15] of the same molecule?
**A.** 6.56 µM

**Q.** What about the TGI [15] of the same molecule?
**A.** 20.4 µM

**Q.** And the GI50 [16]?
**A.** 16 µM

**Q.** What about the TGI [16] of the same molecule?
**A.** 30.8 µM

**Q.** And the GI50 [17]?
**A.** 12.4 µM

**Q.** And the TGI [17]?
**A.** 29.3 µM

**Q.** What about the GI50 [18] of the same molecule?
**A.** 13.1 µM

**Q.** What about the TGI [18] of the same molecule?
**A.** 27.6 µM

**Q.** And the GI50 [19]?
**A.** 1.57 µM

**Q.** What about the TGI [19] of the same molecule?
**A.** 10.5 µM

**Q.** And the GI50 [20]?
**A.** 1.4 µM

**Q.** And the TGI [20]?
**A.** 13.5 µM

**Q.** What about the GI50 [21] of the same molecule?
**A.** 5.85 µM

**Q.** And the TGI [21]?
**A.** 18.5 µM

**Q.** And the GI50 [22]?
**A.** 3.55 µM

**Q.** And the TGI [22]?
**A.** 14.2 µM

**Q.** And the GI50 [23]?
**A.** 4.13 µM

**Q.** And the TGI [23]?
**A.** 24.4 µM

**Q.** And the GI50 [24]?
**A.** 7.88 µM

**Q.** And the TGI [24]?
**A.** 23.9 µM

**Q.** And the GI50 [25]?
**A.** 6.57 µM

**Q.** What about the TGI [25] of the same molecule?
**A.** 31.2 µM

**Q.** What about the GI50 [26] of the same molecule?
**A.** 0.0578 µM

**Q.** And the TGI [26]?
**A.** 9.31 µM

**Q.** What about the GI50 [27] of the same molecule?
**A.** 9.28 µM

**Q.** What about the TGI [27] of the same molecule?
**A.** 34.1 µM

**Q.** And the GI50 [28]?
**A.** 12.6 µM

**Q.** What about the TGI [28] of the same molecule?
**A.** 28.9 µM

**Q.** What about the GI50 [29] of the same molecule?
**A.** 0.0216 µM

**Q.** And the TGI [29]?
**A.** 15.8 µM

**Q.** And the GI50 [30]?
**A.** 8.42 µM

**Q.** And the TGI [30]?
**A.** 23.6 µM

**Q.** What about the GI50 [31] of the same molecule?
**A.** 6.23 µM

**Q.** What about the TGI [31] of the same molecule?
**A.** 20.4 µM

**Q.** What about the GI50 [32] of the same molecule?
**A.** 4.27 µM

**Q.** What about the TGI [32] of the same molecule?
**A.** 34.8 µM

**Q.** What about the GI50 [33] of the same molecule?
**A.** 0.107 µM

**Q.** What about the TGI [33] of the same molecule?
**A.** 10.6 µM

**Q.** What about the GI50 [34] of the same molecule?
**A.** 7.66 µM

**Q.** What about the TGI [34] of the same molecule?
**A.** 45.7 µM

**Q.** And the GI50 [35]?
**A.** 12.3 µM

**Q.** And the TGI [35]?
**A.** 25 µM

**Q.** What about the GI50 [36] of the same molecule?
**A.** 2.3 µM

**Q.** What about the TGI [36] of the same molecule?
**A.** 16.1 µM

**Q.** What about the GI50 [37] of the same molecule?
**A.** 10 µM

**Q.** What about the TGI [37] of the same molecule?
**A.** 24.2 µM

**Q.** And the GI50 [38]?
**A.** 16.1 µM

**Q.** What about the TGI [38] of the same molecule?
**A.** 33.4 µM

**Q.** What about the GI50 [39] of the same molecule?
**A.** 16 µM

**Q.** And the TGI [39]?
**A.** 31.6 µM

**Q.** And the GI50 [40]?
**A.** 11.9 µM

**Q.** And the TGI [40]?
**A.** 26.2 µM

**Q.** And the GI50 [41]?
**A.** 8.02 µM

**Q.** What about the TGI [41] of the same molecule?
**A.** 42.6 µM

**Q.** And the GI50 [42]?
**A.** 7.85 µM

**Q.** And the TGI [42]?
**A.** 22.5 µM

**Q.** What about the GI50 [43] of the same molecule?
**A.** 8.73 µM

**Q.** What about the TGI [43] of the same molecule?
**A.** 22 µM

**Q.** And the GI50 [44]?
**A.** 21.9 µM

**Q.** And the TGI [44]?
**A.** 44.5 µM

**Q.** What about the GI50 [45] of the same molecule?
**A.** 0.643 µM

**Q.** And the TGI [45]?
**A.** 14.6 µM

**Q.** And the GI50 [46]?
**A.** 1.86 µM

**Q.** What about the TGI [46] of the same molecule?
**A.** 16.6 µM

**Q.** And the GI50 [47]?
**A.** 12.9 µM

**Q.** And the TGI [47]?
**A.** 26.1 µM

**Q.** And the GI50 [48]?
**A.** 14.1 µM

**Q.** What about the TGI [48] of the same molecule?
**A.** 28.5 µM

**Q.** What about the GI50 [49] of the same molecule?
**A.** 3.12 µM

**Q.** And the TGI [49]?
**A.** 17.2 µM

**Q.** And the GI50 [50]?
**A.** 6.55 µM

**Q.** And the TGI [50]?
**A.** 19.3 µM

**Q.** And the GI50 [51]?
**A.** 14.3 µM

**Q.** And the TGI [51]?
**A.** 31 µM

**Q.** What about the GI50 [52] of the same molecule?
**A.** 6.82 µM

**Q.** What about the TGI [52] of the same molecule?
**A.** 20.5 µM

**Q.** And the GI50 [53]?
**A.** 0.164 µM

**Q.** What about the TGI [53] of the same molecule?
**A.** 6.65 µM

**Q.** What about the GI50 [54] of the same molecule?
**A.** 2.14 µM

**Q.** And the TGI [54]?
**A.** 18.6 µM

**Q.** And the GI50 [55]?
**A.** 6.11 µM

**Q.** What about the TGI [55] of the same molecule?
**A.** 20.4 µM

**Q.** And the GI50 [56]?
**A.** 6.73 µM

**Q.** And the TGI [56]?
**A.** 21 µM

**Q.** And the GI50 [57]?
**A.** 2.36 µM

**Q.** And the TGI [57]?
**A.** 14.6 µM

**Q.** And the GI50 [58]?
**A.** 9.14 µM

**Q.** What about the TGI [58] of the same molecule?
**A.** 22.3 µM
